Results on three molecules are retold here after US5756491A, “Antiviral cobalt-organic compounds” (priority 1991, dated 1998).

The subject of one data set is VZV. Put plainly: In vitro assay with VZV on HFF monolayers. It counts as cell-based. The conditions noted are these: for virucidal efficacy (VZV titer): Table 20, 7 days PI. How it is done: VZV was grown to a CPE level in vitro assays with VZV of 3-4+ on HFF cell monolayers. The VZV was scraped from the flask, centrifuged and the cell pellet was resuspended in 10 ml of complete medium. One hundred to 200 μl of the VZV cell associated inoculum was inoculated onto confluent HFF cell monolayers by absorption for 60 minutes at 37° C. After absorption of the virus, the inoculum was aspirated from the cell monolayers.
The VZV-infected monolayers were rehydrated with medium containing the appropriate concentrations of compounds to be tested. All monolayers were incubated at 37° C. Development of VZV cytopathology was monitored daily for 7 days by inverted light microscopy. Titers were calculated by multiple regression analysis.
Sham-inoculated, non-treated HFF cell monolayers were included among with the drug-treated monolayers as cell monolayer controls.
VZV inoculated, non-treated HFF monolayers were included as positive controls.

Data set [1] has as its system HFF cells. Briefly: Neutral red uptake toxicity. In kind it is cell-based, human. The conditions noted are these: stationary cells.
Data set [2] deals with human foreskin fibroblast (HFF) cell monolayers. Briefly: Toxicity effects controls: sham-inoculated compound-treated HFF monolayers. For Toxicity effects: key: +: toxic; -: no toxicity; ±: mild toxicity; T: toxicity effects interfered with CPE rating. It counts as cell-based. An excerpt: With sufficient stirring, all the compounds completely dissolved.
In the tables, the symbols have the meaning indicated: […]

Data set [3] deals with HFF cells. Briefly: Cell proliferation assay. It counts as cell-based, human. The conditions noted are these: rapidly growing cells. How it is done: Twenty-four hours prior to assay, HFF cells are seeded in 6-well plates at a concentration of 2.5×10^4 cells per well in MEM containing 10% FBS. On the day of the assay, drugs are diluted serially in MEM containing 10% FBS at increments of 1:5 covering a range from 100 μg/ml to 0.03 μg/ml. […] The media from the wells is then aspirated and 2 ml of each drug concentration is then added to each well. The cells are then incubated in a Co2 incubator at 37° C. for 72 h. At the end of this time, the media-drug solution is removed and the cells washed. […] The cell-media mixture is then pipetted up and down vigorously to break up the cell suspension and 0.2 ml of the mixture is added to 9.8 ml of Isoton III and counted using a Coulter Counter. Each sample is counted three times with three replicate wells per sample.

The next data set deals with RE strain HSV-1. Briefly: Topical efficacy in RE strain HSV-1-induced stromal keratitis in the rabbit. It counts as in vivo, NZW rabbit. The conditions noted are these: for efficacy ranking, average stromal disease scores: Example 4, FIG. 2. How it is done: The following examples describe topical ocular evaluation of the inventive compounds during RE strain HSV-1-induced stromal keratitis in the rabbit. These evaluations included analysis of the topical efficacy of both the inventive compounds alone, or, in certain instances, in combination with trifluorothymidine (TFT). The evaluation was carried out by the combined analysis of both clinical and virological (HSV-1 recovery) parameters. The specified number of NZW rabbits (1.5-2.0 kg) were used. Animals were received at least two days prior to inoculation to allow them to accommodate to the conditions in the vivarium facility. This conditioning of the animals prior to inoculation minimizes animal variability. After the accommodation, the animals received a slit-lamp examination to exclude any animals with pre-existing anterior segment ocular defects. Animals were bi-laterally inoculated by intrastromal injection of 10^5 PFU RE strain HSV-1. The animals were then replaced individually into cages. On day number three post-inoculation (PI), the animals were evaluated by slit-lamp microscopy. Corneal stromal, iris and conjunctival disease were graded on an increasing scale of severity from 0+ to 4+. After evaluation, the animals were divided into a specified number of groups each containing an equal number of animals based on a matched corneal stromal involvement. Topical therapy was initiated immediately after animal groupings. All animals received daily slit-lamp evaluations from day 3 through 7 PI. The ocular HSV-1 induced disease severity was recorded daily. […] Differences in disease resolution and development of stromal alterations are statistically analyzed. Virus recovery during and after topical therapy was compared. The topical efficacy of Compounds 23 and 96 on stromal HSV-1 infection in the rabbit model of stromal keratitis was evaluated. All animals received daily slit lamp evaluations from day 3 through day 7 and on days 9 and 10 PI. The ocular HSV-1-induced disease severity was recorded daily. The topical efficacy of Compounds 23, 96 and 82 on stromal HSV-1 infection in the rabbit model of stromal keratitis was evaluated. All animals received daily slit lamp evaluations for day 3 through day 7 PI. The ocular HSV-1-induced disease severity was recorded daily. The topical efficacy of Compounds 23 and 96 in combination with TFT on stromal HSV-1 infection in the rabbit model of stromal keratitis was evaluated. Groups 1, 2 and 3 each have 5 animals for a total of 10 eyes per combination therapy. This allowed minimization of individual animal variability and performance of a statistical analysis on the results of the combination therapies. Groups 3, 4 and 5 have 2 animals each. These single-agent therapies were used to verify previously reported data on the efficacy of these compounds. The compounds are used at a lower frequency of delivery to match the dosing regimen of the combination-agent group. Consequently, the study also provides comparative information on Compounds 23 and 96 as a lower frequency of topical administration (4 times per day vs. 9 times per day in previous studies).

Data set [4] concerns HFF cells. Briefly: MTT assay for cell cytotoxicity. The conditions noted are these: stationary cells. In kind it is cell-based, human. As for the experimental part: Twenty-four hours prior to assay, HFF cells are plated into 96 well plates at a concentration of […] cells per well. After 24 h, the media is aspirated and […] of drug is added to the first row of wells and then diluted serially 1:5 using the automated Cetus Liquid Handling System in a manner similar to that used in the CPE assay. The plates are then incubated in a CO2 incubator at 37° C. for seven days. At this time, each well receives 50 microliters of […] solution of MTT in Dulbecco's Phosphate Buffered Saline. The plates are then incubated for an additional four hours. At this time, the media is removed and replaced with 100 μl of 0.04N hydrochloric acid in isopropanol. After shaking briefly, the plates are then read on a plate reader at 550 nm.
In general terms: Tetrazolium dyes change colour on reduction, which living cells bring about.

The mark [5] stands for this setting: 0.1 mg/ml, toxicity observation questionable.
Where [6] appears, read: Experiment 1 (Table 1), 24 h PI, 0.001 mg/ml.
The mark [7] stands for this setting: Experiment 1 (Table 1), 24 h PI, 0.01 mg/ml.
[8] abbreviates: Experiment 1 (Table 1), 24 h PI, 0.1 mg/ml.
[9] abbreviates: Experiment 1 (Table 1), 24 h PI, 1 mg/ml.
Setting [10] is: Experiment 1 (Table 1), 48 h PI, 0.001 mg/ml.
Setting [11] is: Experiment 1 (Table 1), 48 h PI, 0.01 mg/ml.
[12] abbreviates: Experiment 1 (Table 1), 48 h PI, 0.1 mg/ml.
Where [13] appears, read: Experiment 6 (Table 15), 48 h, 0.001 mg/ml.
Where [14] appears, read: Experiment 6 (Table 15), 48 h, 0.01 mg/ml.

With `CC1=CC(C)=[N+]2CC[N+]3=C(C)C=C(C)[O][Co-3]23([NH3+])([NH3+])[O]1.[Cl-]` [Compound 23, reference compound], the “virucidal efficacy (VZV titer)” value in the data set with VZV (setting [5]) was “T?”; in the data set with VZV (0.5 mg/ml) it was 0 PFU/ml; in the data set on VZV (1 mg/ml), 0 PFU/ml; in the data set with VZV (2 mg/ml), 0 PFU/ml; in the data set with VZV (5 mg/ml), 0 PFU/ml. The “toxicity IC50, neutral red uptake” value in the data set on HFF cells [1] worked out at 11.5 MCG/ML. Also, the toxicity effects entry in data set [2] (setting [6]), in data set [2] (setting [7]), in data set [2] (setting [8]), in data set [2] (setting [9]), in data set [2] (setting [10]) and in data set [2] (setting [11]) was “-” throughout. The toxicity effects entry in data set [2] (setting [12]) was “-”; in data set [2] (Experiment 1 (Table 1), 48 h PI, 10 mg/ml), “+”; in data set [2] (Experiment 3 (Table 7), 24 h PI, 0.001 mg/ml) it was “-”; in data set [2] (Experiment 3 (Table 7), 24 h PI, 0.01 mg/ml), “-”; in data set [2] (Experiment 3 (Table 7), 24 h PI, 0.1 mg/ml), “-”; in data set [2] (Experiment 3 (Table 7), 48 h PI, 0.001 mg/ml), “-”. Moreover, the toxicity effects entry is given as “-” in data set [2] (Experiment 3 (Table 7), 48 h PI, 0.01 mg/ml); “-” in data set [2] (Experiment 3 (Table 7), 48 h PI, 0.1 mg/ml); “-” in data set [2] (setting [13]); “-” in data set [2] (setting [14]); “-” in data set [2] (Experiment 6 (Table 15), 48 h, 0.1 mg/ml); “-” in data set [2] (Experiment 6 (Table 15), 48 h, 0.5 mg/ml). Besides, the toxicity effects result in data set [2] (Experiment 6 (Table 15), 48 h, 1 mg/ml) is listed as “-”. The “toxicity IC50, cell proliferation” value with HFF cells [3] amounted to 6.2 MCG/ML. For the same molecule, the “efficacy ranking during stromal HSV-1 infection” value in the data set on RE strain HSV-1 (Example 3, all eyes, FIG. 1, 1 mg/ml (TFT 0.1%), 9x/day, 5 days) was “Compound 96>>Compound 23>TFT>Placebo”. Further, the “efficacy vs TFT therapy” value in the data set with RE strain HSV-1 (Example 3, days 7, 9 and 10 PI) is given as “superior to TFT therapy”. Further, the “efficacy ranking, average stromal disease scores” value in the data set with RE strain HSV-1 is reported as “Compound 96>Compound 82>Compound 23>TFT=Placebo”. Besides, the “effect on stromal disease severity/progression” value in the data set with RE strain HSV-1 (Example 5, FIG. 5, initial stromal disease <0.5 on day 3 PI) was “slowed the progression of stromal disease”. The “toxicity IC50, MTT toxicity” value in the data set with HFF cells [4] was greater than 61 MCG/ML.

Consider `CC([O-])=CC(C)=NCCN=C(C)C=C(C)[O-].[Cl-].[Co+3].c1c[nH]cn1.c1c[nH]cn1` [Compound 82], for which the toxicity effects entry in data set [2] (setting [6]) was “-”; in data set [2] (setting [7]), “-”; in data set [2] (setting [8]), “-”; in data set [2] (setting [9]) it was “-”; in data set [2] (Experiment 1 (Table 1), 24 h PI, 10 mg/ml), “-”; in data set [2] (setting [10]) it was “-”. Also, the toxicity effects result is on record as “-” in data set [2] (setting [11]); “-” in data set [2] (setting [12]); “-” in data set [2] (Experiment 1 (Table 1), 48 h PI, 1 mg/ml). Further, the “toxicity compared with 23 and 76” value in data set [2] (Experiment 1 comment, less than the observed toxicity of 23 and 76) was “one order of magnitud”. In addition, the “efficacy relative to Compounds 23 and 96” value with RE strain HSV-1 (Example 4) was “intermediate between Compounds 23 and 96”. Moreover, the “reduction of stromal disease development” value in the data set with RE strain HSV-1 (Example 4, 1 mg/ml, severity <0.5+ on day 3 PI) is “effective in reducing the development of stromal disease”. In addition, the “efficacy ranking, average stromal disease scores” value in the data set on RE strain HSV-1 was “Compound 96>Compound 82>Compound 23>TFT=Placebo”. In the data set on RE strain HSV-1 (Example 4, severity >0.75), the “effect on development or progression of stromal disease” value is “did not alter the development or progression of stromal disease”.

Take `CC(=NCCN=C(C)C(Cl)=C(C)[O-])C(Cl)=C(C)[O-].[Br-].[Co+3].c1c[nH]cn1.c1c[nH]cn1` [Compound 93]: the “virucidal efficacy (VZV titer)” value in the data set on VZV (0.001 mg/ml) is given as 10^4 PFU/ml; in the data set on VZV (0.01 mg/ml), 10^2 PFU/ml; with VZV (setting [5]), “T?”. Further, the “effective virucidal concentration IC50” value in the data set on VZV (Table 21, VZV) was 10 µg/mL. Further, the “toxicity IC50, neutral red uptake” value with HFF cells [1] is listed as 27.3 MCG/ML. For the same molecule, the toxicity effects entry in data set [2] (Experiment 4 (Table 10), 24 h, 0.001 mg/ml) was “-”; in data set [2] (Experiment 4 (Table 10), 24 h, 0.01 mg/ml) it was “-”; in data set [2] (Experiment 4 (Table 10), 24 h, 0.1 mg/ml) it was “-”; in data set [2] (Experiment 4 (Table 10), 24 h, 0.5 mg/ml), “-”; in data set [2] (Experiment 4 (Table 10), 24 h, 1 mg/ml) it was “-”; in data set [2] (Experiment 4 (Table 10), 48 h, 0.001 mg/ml), “-”. The toxicity effects entry in data set [2] (Experiment 4 (Table 10), 48 h, 0.01 mg/ml) is on record as “-”; in data set [2] (Experiment 4 (Table 10), 48 h, 0.5 mg/ml), “-”; in data set [2] (Experiment 4 (Table 10), 48 h, 1 mg/ml), “-”; in data set [2] (setting [13]), “-”; in data set [2] (setting [14]) it was “-”. Moreover, the “toxicity to HFF monolayers (comment)” value in data set [2] (Experiment 6 comment, more pronounced at 0.5 and 0.1 mg/ml, cell rounding, detaching, granularity) was “toxicity observed”. Also, the “toxicity IC50, cell proliferation” value in the data set with HFF cells [3] was 25.0 MCG/ML. Further, the “toxicity IC50, MTT toxicity” value in the data set on HFF cells [4] is reported as 65.0 MCG/ML.
